Test results as given in publication PMC10385824, “Antiproliferative and Tubulin-Destabilising Effects of 3-(Prop-1-en-2-yl)azetidin-2-Ones and Related Compounds in MCF-7 and MDA-MB-231 Breast Cancer Cells” (Pharmaceuticals, 2023).
Like-named read-outs stand apart in the source and are kept apart here.

Legend:
[1] = HPLC stability study in plasma; assay type: in vitro ADME, human; conditions: buffered plasma (plasma:buffer 1:9); for half-life at 41.3 µg/mL: human blood plasma, read-out: half-life (t½); for remaining at 24 h, 41.3 µg/mL: study over 24 h
Procedure: Analytical high-performance liquid chromatography (HPLC) stability studies were performed as follows using Symmetry® column (C18, 5 µm, 4.6 × 150 mm), Waters 2487 Dual Wavelength Absorbance detector, Waters 1525 binary HPLC pump and Waters 717 plus Autosampler (Waters Corporation, Milford, MA, USA) with detection at 254 nm as previously described. Samples were analysed using mobile phase acetonitrile (80%): water (20%), flow rate (1 mL/min) over 10 min. […] First, 30 µL of compound stock solution was diluted with appropriate buffer (1 mL); sample was shaken and injected immediately. Samples were withdrawn and analysed at the following time points: t = 0 min, 5 min, 30 min, 60 min, 90 min, 120 min, 24 h and 48 h. (ii) Thermal stability: Compound stock solution (1 mL) was placed in a glass vial on a heating block for 4 h at 60 °C. The sample was then cooled, diluted (acetonitrile) and analysed. (ii) Oxidising conditions: H2O2 (3%, 0.2 mL) was added to compound stock solution (0.8 mL). The vial was vortexed and retained at 20 °C, and the sample was analysed at 60, 120 180 and 240 min. (iv) Acidic conditions: HCl (0.1 M, 0.2 mL) was added to stock solutions (0.8 mL). The vial was mixed by vortex and retained at 20 °C. A sample was neutralised with NaOH (0.1 M, 0.2 mL) at 60, 120, 180 and 240 min, followed by HPLC analysis. (v) Alkaline conditions: NaOH (0.1 M, 0.2 mL) was added to stock solution (0.8 mL) of the compound in a vial. The vial was mixed by vortex and retained at 20 °C. A sample was neutralised with HCl (0.1 M, 0.2 mL) at 60, 120, 180 and 240 min followed by HPLC analysis. (vi) Photostability study: Compounds (stock solution, 1 mL) were placed in a vial, exposed to UV light for 4 h and then analysed by HPLC as above. Stability studies in plasma: Approval for this study was obtained from the School of Pharmacy and Pharmaceutical Sciences Trinity College Dublin Research Ethics Committee (2020–06-01-MS). Following informed consent, blood was withdrawn from healthy volunteers, and plasma was obtained by centrifugation and kept at −20 °C until further use. […] A sample (250 µL) was then added to the Eppendorf tube containing ZnSO4.7H2O solution (500 µL) (2% w/v ZnSO4 solution in acetonitrile:water, 1:1). The samples were centrifuged (10,000 rpm, 3 min), filtered (0.2 micron filter) and analysed by HPLC as above. Further samples were taken at one-hour intervals.

SF-268 = experiment: NCI-60 SRB screen, CNS cancer; assay type: cell-based, human; conditions: 48 h; for GI50: Homo sapiens, five dose 0.01–100 µM
Procedure: The initial NCI 60 cell line screen used the sulforhodamine B (SRB) protein assay, at one dose concentration (10 μM), and subsequently, a five-dose screening in the concentration range 0.01–100 μM was carried out.

UACC-257 = experiment: NCI-60 SRB screen, melanoma; assay type: cell-based, human; conditions: for GI50: Homo sapiens
[2] = HPLC stability study in phosphate buffers; assay type: physicochemical; conditions: for half-life at 14.6 µg/mL / remaining at 24 h, 14.6 µg/mL / remaining at 264 h, 14.6 µg/mL: phosphate buffer; for half-life at 14.6 µg/mL: read-out: half-life (t½) (converted); for remaining at 24 h, 14.6 µg/mL: study over 24 h; for remaining at 264 h, 14.6 µg/mL: study over 264 h
SR = experiment: NCI-60 SRB screen, leukemia; assay type: cell-based, human; conditions: 48 h; for GI50: Homo sapiens
[3] = test system: MDA-MB-231 human breast cancer cells; experiment: Alamar Blue cell viability (antiproliferative) assay; assay type: cell-based
MCF-7 cells [4] = experiment: Lactate dehydrogenase (LDH) cytotoxicity assay; assay type: cell-based, human; conditions: 10 μM, 72 h, LDH release
Procedure: The cytotoxic effects of the compounds were determined using the CytoTox 96 non-radioactive cytotoxicity assay (Promega) as previously reported. The MCF-7 cells were seeded in 96-well plates and incubated for 24 h. Cells were treated with test compounds 16, 26 and 30 at 10 μM concentration as described in the cell viability assay above. At 72 hr, 20 μL of ‘lysis solution (10X)’ was added to the control wells to ensure 100% death. The cells were incubated for a further 1 hr. Supernatant (50 μL) was removed from each well and transferred to a 96-well plate. Cytotox 96R Reagent (50 μL) was added to each well, and the plate was retained in darkness at 20 °C for 30 min. 50 μL of ‘stop solution’ was then added to each well, and the absorbance was determined at 490 nm using a Dynatech MR5000 plate reader. The cell death (%) at 10 μM was determined.

MCF-7 cells [5] = experiment: Annexin-V/PI apoptosis assay; conditions: for cells undergoing apoptosis (early+late): 72 h
Procedure: Flow cytometry using annexin-V and propidium iodide (PI) was used to detect apoptotic cell death in MCF-7 cells. […] Cells were then incubated on ice in darkness for 30 min in annexin-V-containing binding buffer [1:100]. Cells were washed once in binding buffer and then re-suspended in propidium iodide containing binding buffer [1:1000]. Cells were analysed directly using the BD Accuri flow cytometer and Prism software. Four cell populations are produced in this assay: annexin-V- and PI-negative (Q4, healthy cells), annexin-V-positive and PI-negative (Q3, early apoptosis), annexin-V- and PI-positive (Q2, late apoptosis) and annexin-V-negative and PI-positive (Q1, necrosis). CA-4 (50 nM) was used as the positive control for apoptosis.
Cells were then collected and processed for analysis.

[6] = test system: microtubule network in MCF-7 cells; experiment: Immunofluorescence confocal microscopy; assay type: cell-based, human; conditions: 16 h
Procedure: CA-4 and β-lactam 9q depolymerise the microtubule network in MCF-7 cells. […] After 16 h, the cells were fixed in 4% paraformaldehyde and stained with mouse monoclonal anti-α-tubulin−FITC antibody (clone DM1A) (green), Alexa Fluor 488 dye, and counterstained with DAPI (blue). The confocal images were obtained by Leica SP8 confocal microscopy with Leica application suite X software. Representative confocal micrograph images of three separate experiments are shown above [scale bar: […]].
The effects of β-lactam 9q on MCF-7 cytoskeleton were determined using confocal microscopy as previously described. MCF-7 cells were seeded at 1 × 10^5 cells/mL in glass slides with eight chambers (BD Biosciences, San Jose, CA, USA). […] Following treatment, cells were gently washed in PBS, fixed for 20 min with 4% paraformaldehyde in PBS and permeabilised in 0.5% Triton X-100. The cells were then washed with PBS-T (PBS containing 0.1% Tween), blocked in 5% bovine serum albumin diluted in PBS-T and incubated with mouse monoclonal anti-α-tubulin-FITC antibody (clone DM1A) (Sigma, Milwaulkee, WI, USA) (1:100) for 2 h at 20 °C. The cells were washed again with PBS-T and incubated with Alexa Fluor 488 dye (1:450) for 1 h at 20 °C. Following washes in PBST, the cells were mounted in Ultra Cruz Mounting Media (Santa Cruz Biotechnology, Santa Cruz, CA, USA), which contained 4,6-diamino-2-phenolindol dihydrochloride (DAPI). The immunofluorescence cell images were captured by Leica SP8 confocal microscopy and analysed with Leica application suite X software. Microscopy experiments were performed on three independent occasions, and the images for these experiments were obtained on the same day using identical conditions.

[7] = UACC-257, five dose 0.01–100 µM, 48 h, read-out: GI50
[8] = five dose 0.01–100 µM, read-out: GI50
[9] = Homo sapiens, MCF7, 72 h, read-out: Viable

C=C(C)C1C(=O)N(c2cc(OC)c(OC)c(OC)c2)C1c1ccc(OC)c(OP(=O)(O)O)c1 (stereo not drawn) [15a, 2-Methoxy-5-(4-oxo-3-(prop-1-en-2-yl)-1-(3,4,5-trimethoxyphenyl)azetidin-2-yl)-phenyl dihydrogen phosphate]
half-life at 41.3 µg/mL [1]: > 24 h
remaining at 24 h, 41.3 µg/mL ([1]; human, Plasma): 97%
GI50 (SF-268): 98.1 nM
GI50 (UACC-257; [7]): > 100000 nM
half-life at 14.6 µg/mL ([2]; pH 4): > 24 h
half-life at 14.6 µg/mL ([2]; pH 7.4): > 24 h
remaining at 24 h, 14.6 µg/mL ([2]; pH 4.0): 96%
remaining at 24 h, 14.6 µg/mL ([2]; pH 7.4): 98%
GI50 (SR; [8]): 53.1 nM
IC50 ([3]; 72 h, eight concentrations 0.001-50 μM, mean ± SEM, read-out: Antiproliferative Activity IC50): 32 ± 5 nM

C=C(C)C1C(=O)N(c2cc(OC)c(OC)c(OC)c2)C1c1ccc(OC)cc1 (stereo not drawn) [9h, 4-(4-Methoxyphenyl)-1-(3,4,5-trimethoxyphenyl)-3-(prop-1-en-2-yl)azetidin-2-one]
cell death (MCF-7 cells [4]): 30%
GI50 (SR; [8]): 38.5 nM
IC50 ([3]; read-out: IC50): 31.3 nM

COc1ccc(C2C(C(C)C)C(=O)N2c2cc(OC)c(OC)c(OC)c2)cc1OP(=O)(O)O (stereo not drawn) [15b, 5-(3-Isopropyl-1-(3,4,5-trimethoxyphenyl)-4-oxoazetidin-2-yl)-2-methoxyphenyl dihydrogen phosphate]
GI50 (SF-268): 447 nM
GI50 (UACC-257; [7]): > 100000 nM
GI50 (SR; [8]): 324 nM

C=C(C)C1C(=O)N(c2cc(OC)c(OC)c(OC)c2)C1c1ccc(OC)c(N)c1 (stereo not drawn) [9s, 4-(3-Amino-4-methoxyphenyl)-1-(3,4,5-trimethoxyphenyl)-3-(prop-1-en-2-yl)azetidin-2-one]
GI50 (UACC-257; [7]): > 100000 nM
GI50 (SR; [8]): 30.4 nM

C=CCC1C(=O)N(c2cc(OC)c(OC)c(OC)c2)C1c1ccc(OC)c(O)c1 (stereo not drawn) [10p, 4-(3-Hydroxy-4-methoxyphenyl)-1-(3,4,5-trimethoxyphenyl)-3-allylazetidin-2-one]
remaining at 264 h, 41.3 µg/mL ([1]; human, Plasma, study over 264 h): 97%
compound remaining ([2]; all pH values (4, 7.4, 9), after 11 days): over 95%
remaining at 264 h, 14.6 µg/mL ([2]; pH 4.0): 98%
remaining at 264 h, 14.6 µg/mL ([2]; pH 7.4): 99%
remaining at 264 h, 14.6 µg/mL ([2]; pH 9.0): 96%
half-life at 14.6 µg/mL ([2]; pH range studied, medium not specified): > 24 h
GI50 (SR; [8]): 31.4 nM
IC50 ([3]; read-out: IC50): 27 nM

C=C/C=C/C1C(=O)N(c2cc(OC)c(OC)c(OC)c2)C1c1ccc(OC)c(N)c1 (stereo not drawn) [11r, (E)-4-(3-Amino-4-methoxyphenyl)-3-(buta-1,3-dien-1-yl)-1-(3,4,5-trimethoxyphenyl)azetidin-2-one]
GI50 (SR): 33.5 nM
IC50 ([3]; read-out: IC50): 33 nM

C=CC=CC1C(=O)N(c2cc(OC)c(OC)c(OC)c2)C1c1ccc(OC)cc1 (stereo not drawn) [11h, 3-(Buta-1,3-dienyl)-4-(4-methoxyphenyl)-1-(3,4,5-trimethoxyphenyl)azetidin-2-one]
GI50 (UACC-257; UACC-257, 48 h): 11200 nM
GI50 (SR): 35.6 nM
IC50 ([3]; read-out: IC50): 31 nM

C=C(C)C1C(=O)N(c2cc(OC)c(OC)c(OC)c2)C1c1ccc(OC)c(O)c1 (stereo not drawn) [9q, 4-(3-Hydroxy-4-methoxyphenyl)-1-(3,4,5-trimethoxyphenyl)-3-(prop-1-en-2-yl)azetidin-2-one]
half-life at 41.3 µg/mL [1]: > 24 h
remaining at 24 h, 41.3 µg/mL ([1]; human, Plasma): 80%
GI50 (SF-268): 22.9 nM
% Growth (SF-268; one dose 10 µM): 19.27%
% Growth (UACC-257; UACC-257, one dose 10 µM, 48 h): 74.47%
half-life at 14.6 µg/mL ([2]; pH 4): 13 h
half-life at 14.6 µg/mL ([2]; pH 7.4): 13 h
half-life at 14.6 µg/mL ([2]; pH 9): 6 h
remaining at 24 h, 14.6 µg/mL ([2]; pH 4.0): 33%
remaining at 24 h, 14.6 µg/mL ([2]; pH 7.4): 35%
remaining at 24 h, 14.6 µg/mL ([2]; pH 9.0): 34%
cell death (MCF-7 cells [4]): 32%
cells undergoing apoptosis (early+late) (MCF-7 cells [5]; 50 nM): 27%
cells undergoing apoptosis (early+late) (MCF-7 cells [5]; 500 nM): 38.9%
viability at 0.05 µM (MCF-7 cells [5]; [9]): 69.2%
viability at 0.5 µM (MCF-7 cells [5]; [9]): 57%
effect on microtubule network [6]: microtubule formation was inhibited and resulted in depolymerised microtubules
GI50 (SR; [8]): < 10 nM
% Growth (SR; one dose 10 µM): -2.84%
IC50 ([3]; read-out: IC50): 23.9 nM
